Some test systems named below: 786-0; BT-549; EKVX; HCT-15; HT-29; Hs-578T; IGROV-1; KM12; MDA-MB-435; NCI-H522; SF-539; SK-OV-3; SNB-75; SW-620; T47D; UO-31; HOP-92.
Holding throughout (assay): NCI anticancer screen, dose series, 48 h

SMILES strings stand for the structures.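 Method: 48-hour compound exposure of cells in 96-well plates, five concentrations, linear interpolation of endpoints. GI50 marks 50% less growth.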 Activity calls are given as the source filed them. No stated cut-off is given here; in the data, active = GI50 up to about 1.1 µM and inactive = higher.

For the compound `O=C(Nc1cccc2ccccc12)c1ccccc1`, the GI50 in the assay on 786-0 was > 100 µM (inactive); in the assay on BT-549 it was > 100 µM (inactive); with EKVX, > 100 µM (inactive); in the assay with HCT-15, 98.2 µM; with HT-29 it was 47.5 µM (inactive); in the assay on Hs-578T, > 100 µM (inactive). The GI50 with IGROV-1 was > 100 µM (inactive); in the assay with KM12 it was > 100 µM (inactive); in the assay with MDA-MB-435 it was 22.6 µM (inactive); in the assay on NCI-H522 it was 68.7 µM (inactive); in the assay on SF-539, 64.7 µM (inactive); in the assay on SK-OV-3 it was > 100 µM (inactive). Also, the GI50 is 21.8 µM (inactive) with SNB-75, 34.4 µM (inactive) with SW-620, 11.5 µM (inactive) in the assay with T47D and > 100 µM (inactive) in the assay with UO-31.

`COC(=O)c1c(C)c2c(c(C)c1O)OC(=O)c1c(C)cc(O)c(C=O)c1O2`: the GI50 in the assay on 786-0 is > 100 µM (inactive); in the assay on BT-549 it was > 100 µM (inactive); in the assay with EKVX, > 100 µM (inactive); in the assay on HCT-15, more than 100 µM; in the assay with HOP-92, > 100 µM (inactive); with HT-29 it was > 100 µM (inactive). For the same compound, the GI50 is 12.5 µM (inactive) in the assay on Hs-578T; 69.7 µM (inactive) with IGROV-1; > 100 µM (inactive) in the assay on KM12; > 100 µM (inactive) with MDA-MB-435; > 100 µM (inactive) in the assay on NCI-H522; > 100 µM (inactive) with SF-539. Also, the GI50 in the assay on SK-OV-3 was 20 µM (inactive); with SW-620 it was > 100 µM (inactive); in the assay with T47D it was > 100 µM (inactive).

Consider `CCN(CC)CCn1nc(N)c2nc3cc(Cl)ccc3nc21`, for which the GI50 with 786-0 is 62.8 µM (inactive); in the assay on BT-549, > 100 µM (inactive); in the assay with EKVX, 80 µM (inactive); in the assay on HCT-15 it was more than 100 µM; with HOP-92 it was > 100 µM (inactive); with HT-29 it was 35.3 µM (inactive). The GI50 in the assay with Hs-578T was > 100 µM (inactive); with IGROV-1, 16.3 µM (inactive); in the assay on KM12, 94.8 µM (inactive); in the assay on MDA-MB-435 it was 97.9 µM (inactive); with NCI-H522 it was 31.8 µM (inactive); in the assay with SK-OV-3, > 100 µM (inactive). Also, the GI50 with SW-620 is 63 µM (inactive); with T47D, > 100 µM (inactive); in the assay on UO-31, 23.8 µM (inactive).

As to `Cc1ccc(Cc2n[nH]c(=O)n2Nc2ccccc2)cc1`, the GI50 is > 100 µM (inactive) in the assay on 786-0; > 100 µM (inactive) in the assay with BT-549; 81.5 µM (inactive) with EKVX; more than 100 µM in the assay with HCT-15; 65.2 µM (inactive) in the assay with HOP-92; > 100 µM (inactive) in the assay on HT-29. The GI50 in the assay on Hs-578T, in the assay with IGROV-1, in the assay on KM12, in the assay with MDA-MB-435, in the assay on NCI-H522 and in the assay on SF-539 was > 100 µM (inactive) each time. Also, the GI50 with SK-OV-3 is > 100 µM (inactive); in the assay on SW-620, > 100 µM (inactive); with T47D, 89.9 µM (inactive); with UO-31, 68.2 µM (inactive).

In the case of `CCc1ccc2c(c1)/C(=C1/Nc3ccccc3/C1=N/O)C(=O)N2`, the GI50 with 786-0 was 6.61 µM (inactive); in the assay with BT-549, 8 µM (inactive); in the assay on EKVX, 5.19 µM (inactive); with HCT-15 it was 3.53 µM; with HT-29, 4.71 µM (inactive); in the assay with Hs-578T, 4.57 µM (inactive). Further, the GI50 was 5.08 µM (inactive) with IGROV-1; 0.117 µM (active) with KM12; 7.55 µM (inactive) in the assay with MDA-MB-435; 3.43 µM (inactive) in the assay with NCI-H522; 2.44 µM (inactive) in the assay with SK-OV-3; 11.8 µM (inactive) in the assay on SNB-75. Also, the values for the GI50 in the assay on SW-620, in the assay with T47D and in the assay with UO-31 were 4.53 µM (inactive), 6.28 µM (inactive) and 4.12 µM (inactive), respectively.

`Cn1nc2ccc3nccc(N4CCN(CCO)CC4)c3c2n1`: the GI50 in the assay with 786-0 was > 100 µM (inactive); in the assay with BT-549 it was > 100 µM (inactive); in the assay on HCT-15, 4.02 µM; in the assay with HT-29, > 100 µM (inactive); in the assay with Hs-578T, > 100 µM (inactive); in the assay with IGROV-1, > 100 µM (inactive). The GI50 with KM12 is > 100 µM (inactive); in the assay with MDA-MB-435, > 100 µM (inactive); in the assay on NCI-H522, > 100 µM (inactive); with SK-OV-3 it was > 100 µM (inactive); in the assay with SNB-75, > 100 µM (inactive); with SW-620, 59.4 µM (inactive). For the same compound, the GI50 was 42.3 µM (inactive) with T47D and > 100 µM (inactive) in the assay with UO-31.

With `Cc1ccc(/C=N\NC(=O)c2ccncc2)s1`, the GI50 with 786-0 was > 100 µM (inactive); in the assay on BT-549, > 100 µM (inactive); in the assay on EKVX, > 100 µM (inactive); in the assay on HCT-15, more than 100 µM; in the assay on HOP-92, > 100 µM (inactive); with HT-29, > 100 µM (inactive). The GI50 in the assay with Hs-578T, in the assay on IGROV-1, in the assay with KM12, in the assay on MDA-MB-435, in the assay on NCI-H522 and in the assay with SF-539 was > 100 µM (inactive) throughout. In addition, the GI50 with SK-OV-3, with SW-620, in the assay with T47D and in the assay on UO-31 was > 100 µM (inactive) in each case.

For `CC1OC(n2cc(F)c(=O)[nH]c2=O)C(O[Si](C)(C)C(C)(C)C)C1O[Si](C)(C)C(C)(C)C` (stereo unspecified), the GI50 is 14.6 µM (inactive) in the assay with 786-0; 13.4 µM (inactive) in the assay on BT-549; 16.9 µM (inactive) in the assay on EKVX; 12.9 µM in the assay on HCT-15; 10.8 µM (inactive) with HT-29; 14.3 µM (inactive) with Hs-578T. For the same compound, the GI50 with IGROV-1 was 13.3 µM (inactive); with KM12, 11.9 µM (inactive); in the assay with MDA-MB-435, 17.9 µM (inactive); in the assay on NCI-H522, 4.34 µM (inactive); with SF-539 it was 12.6 µM (inactive); with SK-OV-3 it was 14.7 µM (inactive). Moreover, the GI50 was 15.5 µM (inactive) in the assay with SNB-75, 15 µM (inactive) with SW-620, 10.2 µM (inactive) in the assay on T47D and 12.8 µM (inactive) in the assay with UO-31.

Turning to `CN(CCNC(=O)c1n[nH]c2c1Cc1ccccc1-2)CCNC(=O)c1n[nH]c2c1Cc1ccccc1-2`, the GI50 in the assay with 786-0 was 16 µM (inactive); in the assay on BT-549 it was 16.8 µM (inactive); in the assay on EKVX, 20.6 µM (inactive); in the assay with HCT-15 it was 18.4 µM; in the assay on HOP-92, 17.3 µM (inactive); in the assay on HT-29, 17.7 µM (inactive). Also, the GI50 in the assay with Hs-578T was 25.3 µM (inactive); with IGROV-1, 16.3 µM (inactive); in the assay on KM12, 17.3 µM (inactive); with MDA-MB-435 it was 17.5 µM (inactive); with NCI-H522 it was 17.5 µM (inactive); in the assay with SK-OV-3, 16.5 µM (inactive). The GI50 was 12.5 µM (inactive) in the assay with SNB-75, 22.1 µM (inactive) in the assay with SW-620, 18.8 µM (inactive) in the assay with T47D and 19.4 µM (inactive) in the assay with UO-31.

In the case of `CCOC(=O)NC(Nc1ccc(S(=O)(=O)Nc2nc(C)cc(C)n2)cc1)(C(=O)OCC)C(F)(F)F` (stereo unspecified), the GI50 with 786-0 is > 100 µM (inactive); in the assay on BT-549 it was > 100 µM (inactive); with EKVX, > 100 µM (inactive); with HCT-15, more than 100 µM; with HOP-92 it was > 100 µM (inactive); in the assay on HT-29 it was > 100 µM (inactive). Also, the GI50 with Hs-578T, in the assay with IGROV-1, in the assay on KM12, with MDA-MB-435, in the assay on SF-539 and in the assay with SK-OV-3 was > 100 µM (inactive) throughout. Further, the GI50 in the assay with SNB-75, with SW-620, in the assay with T47D and in the assay on UO-31 was > 100 µM (inactive) each time.

Regarding `COc1cccc(/N=N/C(=N\NC(=O)c2ccc(C)cc2)c2ccc(N(CCC#N)CCC#N)cc2C)c1`, the GI50 in the assay on 786-0 was > 100 µM (inactive); in the assay with BT-549 it was 71 µM (inactive); in the assay with EKVX, 66.5 µM (inactive); with HCT-15, more than 100 µM; with HOP-92, > 100 µM (inactive); in the assay on HT-29, > 100 µM (inactive). For the same compound, the GI50 in the assay with Hs-578T is 54.1 µM (inactive); in the assay with IGROV-1, > 100 µM (inactive); in the assay on KM12, 73.5 µM (inactive); in the assay with MDA-MB-435, 64.3 µM (inactive); with SF-539 it was > 100 µM (inactive); with SK-OV-3, 48.2 µM (inactive). The GI50 in the assay with SNB-75 was 53.1 µM (inactive); in the assay on SW-620 it was > 100 µM (inactive); with T47D it was 41.1 µM (inactive); with UO-31, 59.8 µM (inactive).

Turning to `C=C1CC(C)(c2cccc(Nc3nc4ccccc4c4occc34)c2)OC1=O` (stereo unspecified), the GI50 with 786-0 was 1.67 µM (inactive); with BT-549, 4.85 µM (inactive); in the assay on EKVX, 14.7 µM (inactive); in the assay with HCT-15, 3.52 µM; with HOP-92, 1.44 µM (inactive); in the assay with HT-29 it was 4.99 µM (inactive). Also, the GI50 with Hs-578T is 3.25 µM (inactive); in the assay with KM12, 5.08 µM (inactive); in the assay on MDA-MB-435, 5.11 µM (inactive); in the assay with SF-539 it was 1.69 µM (inactive); with SK-OV-3 it was 13.7 µM (inactive); in the assay on SNB-75, 5.58 µM (inactive). Further, the GI50 in the assay with T47D is 3.1 µM (inactive); in the assay on UO-31 it was 1.89 µM (inactive).

In the case of `CC1=NN=C(N)N/C1=C\C(Sc1ccc(Cl)cc1)c1ccc(Cl)cc1Cl` (stereo unspecified), the GI50 in the assay with 786-0 was 18.5 µM (inactive); in the assay with BT-549, 20 µM (inactive); in the assay with EKVX, 13.2 µM (inactive); in the assay with HCT-15, 10.9 µM; in the assay with HOP-92 it was 9.71 µM (inactive); in the assay on HT-29, 3.59 µM (inactive). The GI50 in the assay with Hs-578T is 17.5 µM (inactive); in the assay with IGROV-1, 8.61 µM (inactive); with KM12, 6.41 µM (inactive); in the assay on MDA-MB-435, 18.1 µM (inactive); in the assay on NCI-H522, 3.79 µM (inactive); in the assay with SK-OV-3 it was 18.3 µM (inactive). The GI50 with SNB-75 is 13.9 µM (inactive); in the assay on SW-620, 17.2 µM (inactive); in the assay on T47D it was 14.2 µM (inactive); with UO-31 it was 11.2 µM (inactive).

These data come from ChEMBL document CHEMBL1201862, “PubChem BioAssay data set” (2004).
